Reference: PubChem BioAssay (NCI)
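Where inhibition never reached the appropriate level, the endpoint shown equals the highest concentration tested. Otherwise, values were interpolated linearly from a five-concentration, 48-hour dose response in 96-well plates. The concentration for 50% growth inhibition is given as GI50. Definition used: TGI = concentration required for complete inhibition of growth.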

Experiments:
Experiment in all cases: NCI anticancer screen, dose series, 48 h
786-0 renal = tested on: 786-0 renal
HOP-92 NSCLC = tested on: HOP-92 NSCLC
NCI-H23 lung = tested on: NCI-H23 lung
NCI/ADR-RES ovarian = tested on: NCI/ADR-RES ovarian
DU-145 prostate = tested on: DU-145 prostate
M14 melanoma = tested on: M14 melanoma
A549 NSCLC = tested on: A549 NSCLC
SF-539 CNS = tested on: SF-539 CNS
OVCAR-3 ovarian = tested on: OVCAR-3 ovarian
MDA-MB-231 breast = tested on: MDA-MB-231 breast
UACC-62 melanoma = tested on: UACC-62 melanoma
SK-MEL-5 melanoma = tested on: SK-MEL-5 melanoma
HL-60(TB) leukemia = tested on: HL-60(TB) leukemia
SF-268 CNS = tested on: SF-268 CNS
NCI-H522 lung = tested on: NCI-H522 lung
KM12 colon = tested on: KM12 colon
SN12C renal = tested on: SN12C renal
MOLT-4 leukemia = tested on: MOLT-4 leukemia
RXF 393 renal = tested on: RXF 393 renal
BT-549 breast = tested on: BT-549 breast
SK-MEL-28 melanoma = tested on: SK-MEL-28 melanoma
TK-10 renal = tested on: TK-10 renal
MALME-3M melanoma = tested on: MALME-3M melanoma
UACC-257 melanoma = tested on: UACC-257 melanoma
A498 renal = tested on: A498 renal
HCT-116 colon = tested on: HCT-116 colon
CAKI-1 renal = tested on: CAKI-1 renal
IGROV1 ovarian = tested on: IGROV1 ovarian
OVCAR-8 ovarian = tested on: OVCAR-8 ovarian
SK-MEL-2 melanoma = tested on: SK-MEL-2 melanoma
ACHN renal = tested on: ACHN renal
SF-295 CNS = tested on: SF-295 CNS
MCF7 breast = tested on: MCF7 breast
SR leukemia = tested on: SR leukemia
EKVX NSCLC = tested on: EKVX NSCLC
HCC-2998 colon = tested on: HCC-2998 colon
COLO 205 colon = tested on: COLO 205 colon
LOX IMVI melanoma = tested on: LOX IMVI melanoma
CCRF-CEM leukemia = tested on: CCRF-CEM leukemia
SNB-75 CNS = tested on: SNB-75 CNS
RPMI-8226 leukemia = tested on: RPMI-8226 leukemia
MDA-MB-435 = tested on: MDA-MB-435
SNB-19 CNS = tested on: SNB-19 CNS
HS 578T breast = tested on: HS 578T breast
UO-31 renal = tested on: UO-31 renal
U251 CNS = tested on: U251 CNS
SW-620 colon = tested on: SW-620 colon
OVCAR-5 ovarian = tested on: OVCAR-5 ovarian
HOP-62 NSCLC = tested on: HOP-62 NSCLC
T-47D breast = tested on: T-47D breast
NCI-H460 lung = tested on: NCI-H460 lung
HCT-15 colon = tested on: HCT-15 colon
NCI-H226 lung = tested on: NCI-H226 lung
PC-3 prostate = tested on: PC-3 prostate
HT29 colon = tested on: HT29 colon
K-562 leukemia = tested on: K-562 leukemia
OVCAR-4 ovarian = tested on: OVCAR-4 ovarian
SK-OV-3 ovarian = tested on: SK-OV-3 ovarian
MDA-N = tested on: MDA-N

SMILES: CCCc1nn(C)c2c(=O)[nH]c(-c3cc(S(=O)(=O)N4CCN(C)CC4)ccc3OCC)nc12
- GI50 (786-0 renal): > 100 µM
- TGI (786-0 renal): > 100 µM
- GI50 (HOP-92 NSCLC): 23.5 µM
- TGI (HOP-92 NSCLC): 97.5 µM
- GI50 (NCI-H23 lung): > 100 µM
- TGI (NCI-H23 lung): > 100 µM
- GI50 (NCI/ADR-RES ovarian): > 100 µM
- TGI (NCI/ADR-RES ovarian): > 100 µM
- GI50 (DU-145 prostate): > 100 µM
- TGI (DU-145 prostate): > 100 µM
- GI50 (M14 melanoma): > 100 µM
- TGI (M14 melanoma): > 100 µM
- GI50 (A549 NSCLC): > 100 µM
- TGI (A549 NSCLC): > 100 µM
- GI50 (SF-539 CNS): > 100 µM
- TGI (SF-539 CNS): > 100 µM
- GI50 (OVCAR-3 ovarian): > 100 µM
- TGI (OVCAR-3 ovarian): > 100 µM
- GI50 (MDA-MB-231 breast): > 100 µM
- TGI (MDA-MB-231 breast): > 100 µM
- GI50 (UACC-62 melanoma): > 100 µM
- TGI (UACC-62 melanoma): > 100 µM
- GI50 (SK-MEL-5 melanoma): > 100 µM
- TGI (SK-MEL-5 melanoma): > 100 µM
- GI50 (HL-60(TB) leukemia): > 100 µM
- TGI (HL-60(TB) leukemia): > 100 µM
- GI50 (SF-268 CNS): > 100 µM
- TGI (SF-268 CNS): > 100 µM
- GI50 (NCI-H522 lung): > 100 µM
- TGI (NCI-H522 lung): > 100 µM
- GI50 (KM12 colon): > 100 µM
- TGI (KM12 colon): > 100 µM
- GI50 (SN12C renal): > 100 µM
- TGI (SN12C renal): > 100 µM
- GI50 (MOLT-4 leukemia): > 100 µM
- TGI (MOLT-4 leukemia): > 100 µM
- GI50 (RXF 393 renal): > 100 µM
- TGI (RXF 393 renal): > 100 µM
- GI50 (BT-549 breast): > 100 µM
- TGI (BT-549 breast): > 100 µM
- GI50 (SK-MEL-28 melanoma): > 100 µM
- TGI (SK-MEL-28 melanoma): > 100 µM
- GI50 (TK-10 renal): 94.3 µM
- TGI (TK-10 renal): > 100 µM
- GI50 (MALME-3M melanoma): > 100 µM
- TGI (MALME-3M melanoma): > 100 µM
- GI50 (UACC-257 melanoma): > 100 µM
- TGI (UACC-257 melanoma): > 100 µM
- GI50 (A498 renal): 25.6 µM
- TGI (A498 renal): > 100 µM
- GI50 (HCT-116 colon): > 100 µM
- TGI (HCT-116 colon): > 100 µM
- GI50 (CAKI-1 renal): > 100 µM
- TGI (CAKI-1 renal): > 100 µM
- GI50 (IGROV1 ovarian): 91.4 µM
- TGI (IGROV1 ovarian): > 100 µM
- GI50 (OVCAR-8 ovarian): > 100 µM
- TGI (OVCAR-8 ovarian): > 100 µM
- GI50 (SK-MEL-2 melanoma): > 100 µM
- TGI (SK-MEL-2 melanoma): > 100 µM
- GI50 (ACHN renal): > 100 µM
- TGI (ACHN renal): > 100 µM
- GI50 (SF-295 CNS): > 100 µM
- TGI (SF-295 CNS): > 100 µM
- GI50 (MCF7 breast): > 100 µM
- TGI (MCF7 breast): > 100 µM
- GI50 (SR leukemia): > 100 µM
- TGI (SR leukemia): > 100 µM
- GI50 (EKVX NSCLC): > 100 µM
- TGI (EKVX NSCLC): > 100 µM
- GI50 (HCC-2998 colon): > 100 µM
- TGI (HCC-2998 colon): > 100 µM
- GI50 (COLO 205 colon): > 100 µM
- TGI (COLO 205 colon): > 100 µM
- GI50 (LOX IMVI melanoma): > 100 µM
- TGI (LOX IMVI melanoma): > 100 µM
- GI50 (CCRF-CEM leukemia): > 100 µM
- TGI (CCRF-CEM leukemia): > 100 µM
- GI50 (SNB-75 CNS): 53.2 µM
- TGI (SNB-75 CNS): > 100 µM
- GI50 (RPMI-8226 leukemia): > 100 µM
- TGI (RPMI-8226 leukemia): > 100 µM
- GI50 (MDA-MB-435): > 100 µM
- TGI (MDA-MB-435): > 100 µM
- GI50 (SNB-19 CNS): > 100 µM
- TGI (SNB-19 CNS): > 100 µM
- GI50 (HS 578T breast): 21.6 µM
- TGI (HS 578T breast): > 100 µM
- GI50 (UO-31 renal): > 100 µM
- TGI (UO-31 renal): > 100 µM
- GI50 (U251 CNS): > 100 µM
- TGI (U251 CNS): > 100 µM
- GI50 (SW-620 colon): > 100 µM
- TGI (SW-620 colon): > 100 µM
- GI50 (OVCAR-5 ovarian): > 100 µM
- TGI (OVCAR-5 ovarian): > 100 µM
- GI50 (HOP-62 NSCLC): > 100 µM
- TGI (HOP-62 NSCLC): > 100 µM
- GI50 (T-47D breast): > 100 µM
- TGI (T-47D breast): > 100 µM
- GI50 (NCI-H460 lung): > 100 µM
- TGI (NCI-H460 lung): > 100 µM
- GI50 (HCT-15 colon): > 100 µM
- TGI (HCT-15 colon): > 100 µM
- GI50 (NCI-H226 lung): > 100 µM
- TGI (NCI-H226 lung): > 100 µM
- GI50 (PC-3 prostate): > 100 µM
- TGI (PC-3 prostate): > 100 µM
- GI50 (HT29 colon): > 100 µM
- TGI (HT29 colon): > 100 µM
- GI50 (K-562 leukemia): > 100 µM
- TGI (K-562 leukemia): > 100 µM
- GI50 (OVCAR-4 ovarian): > 100 µM
- TGI (OVCAR-4 ovarian): > 100 µM
- GI50 (SK-OV-3 ovarian): > 100 µM
- TGI (SK-OV-3 ovarian): > 100 µM

SMILES: COC(=O)CCc1ccc(CCC(=O)OC)cc1
- TGI (786-0 renal): > 100 µM
- TGI (HOP-92 NSCLC): > 100 µM
- TGI (NCI-H23 lung): > 100 µM
- TGI (NCI/ADR-RES ovarian): > 100 µM
- TGI (DU-145 prostate): > 100 µM
- TGI (M14 melanoma): > 100 µM
- TGI (A549 NSCLC): > 100 µM
- TGI (SF-539 CNS): > 100 µM
- TGI (OVCAR-3 ovarian): > 100 µM
- TGI (MDA-MB-231 breast): > 100 µM
- TGI (SK-MEL-5 melanoma): > 100 µM
- TGI (HL-60(TB) leukemia): > 100 µM
- TGI (SF-268 CNS): > 100 µM
- TGI (NCI-H522 lung): > 100 µM
- TGI (MOLT-4 leukemia): > 100 µM
- TGI (RXF 393 renal): > 100 µM
- TGI (SK-MEL-28 melanoma): > 100 µM
- TGI (TK-10 renal): > 100 µM
- TGI (MALME-3M melanoma): > 100 µM
- TGI (UACC-257 melanoma): > 100 µM
- TGI (A498 renal): > 100 µM
- TGI (HCT-116 colon): > 100 µM
- TGI (CAKI-1 renal): > 100 µM
- TGI (IGROV1 ovarian): > 100 µM
- TGI (OVCAR-8 ovarian): > 100 µM
- TGI (SK-MEL-2 melanoma): > 100 µM
- TGI (ACHN renal): > 100 µM
- TGI (SF-295 CNS): > 100 µM
- TGI (MCF7 breast): > 100 µM
- TGI (SR leukemia): > 100 µM
- TGI (EKVX NSCLC): > 100 µM
- TGI (HCC-2998 colon): > 100 µM
- TGI (LOX IMVI melanoma): > 100 µM
- TGI (CCRF-CEM leukemia): > 100 µM
- TGI (SNB-75 CNS): > 100 µM
- TGI (RPMI-8226 leukemia): > 100 µM
- TGI (MDA-MB-435): > 100 µM
- TGI (SNB-19 CNS): > 100 µM
- TGI (HS 578T breast): > 100 µM
- TGI (UO-31 renal): > 100 µM
- TGI (U251 CNS): > 100 µM
- TGI (SW-620 colon): > 100 µM
- TGI (OVCAR-5 ovarian): > 100 µM
- TGI (HOP-62 NSCLC): > 100 µM
- TGI (T-47D breast): > 100 µM
- TGI (NCI-H460 lung): > 100 µM
- TGI (HCT-15 colon): > 100 µM
- TGI (PC-3 prostate): > 100 µM
- TGI (MDA-N): > 100 µM
- TGI (HT29 colon): > 100 µM
- TGI (K-562 leukemia): > 100 µM
- TGI (OVCAR-4 ovarian): > 100 µM
- TGI (SK-OV-3 ovarian): > 100 µM
